The experiment addresses COX-1 (Homo sapiens, UniProt P23219). The experiment can be described thus: biochemical.

These results are taken from patent US20050148627A1, “Benzopyran compounds for use in the treatment and prevention of inflammation related conditions” (priority 2003, published 2005).

For orientation: pIC50 means the negative decadic logarithm of the IC50, by convention in mol/L. A lower pIC50 goes with a high IC50.

pIC50: −log10 of the molar value. “And” between values parts separate entries of the source, which are not always exact repeats. Equal entries are not always repeated.

COX-1, sequence (P23219 24-599): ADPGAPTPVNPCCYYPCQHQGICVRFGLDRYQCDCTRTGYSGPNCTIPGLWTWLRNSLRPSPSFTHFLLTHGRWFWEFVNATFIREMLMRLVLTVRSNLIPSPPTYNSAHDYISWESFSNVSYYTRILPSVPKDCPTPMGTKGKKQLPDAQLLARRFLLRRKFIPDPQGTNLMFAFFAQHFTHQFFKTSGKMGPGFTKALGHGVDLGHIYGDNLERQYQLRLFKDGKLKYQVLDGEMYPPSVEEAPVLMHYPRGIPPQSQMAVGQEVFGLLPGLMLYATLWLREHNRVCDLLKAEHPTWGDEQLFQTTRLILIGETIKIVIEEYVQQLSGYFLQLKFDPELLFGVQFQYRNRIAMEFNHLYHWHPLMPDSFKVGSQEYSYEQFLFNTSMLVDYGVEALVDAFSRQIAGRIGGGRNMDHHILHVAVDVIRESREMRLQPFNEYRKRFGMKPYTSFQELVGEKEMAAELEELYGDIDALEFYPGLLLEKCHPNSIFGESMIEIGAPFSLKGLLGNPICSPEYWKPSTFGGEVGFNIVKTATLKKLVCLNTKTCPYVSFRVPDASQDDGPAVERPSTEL
Method: Evaluation of COX-1 and COX-2 Activity In Vitro
b. Assay for COX-1 and COX-2 Activity
COX activity was assayed as PGE2 formed/μg protein/time using an ELISA to detect the prostaglandin released. CHAPS-solubilized insect cell membranes containing the appropriate COX enzyme were incubated in a potassium phosphate buffer (50 mM, pH 8.0) containing epinephrine, phenol, and heme with the addition of arachidonic acid (10 μM). Compounds were pre-incubated with the enzyme for 10-20 minutes prior to the addition of arachidonic acid. […] The PGE2 formed was measured by standard ELISA technology (Cayman Chemical).

The compound `O=C(O)C1=Cc2ccc(Cc3ccc(F)c(F)c3)cc2OC1C(F)(F)F` (stereo not drawn) [Example 9aa, 7-(3,4-difluorobenzyl)-2-(trifluoromethyl)-2H-chromene-3-carboxylic acid] had a pIC50 below 4.00.

In turn, `COc1ccc(Cc2cc3c(cc2Cl)C=C(C(=O)O)C(C(F)(F)F)O3)cc1Cl` (stereo not drawn) [Example 9r, 6-chloro-7-(3-chloro-4-methoxybenzyl)-2-(trifluoromethyl)-2H-chromene-3-carboxylic acid] had a negative logarithm of the IC50 (pIC50) of 4.09. `O=C(O)C1=Cc2cc(Cl)c(OCc3ccccc3)cc2OC1C(F)(F)F` (stereo not drawn) [Example 2f, 7-(benzyloxy)-6-chloro-2-(trifluoromethyl)-2H-chromene-3-carboxylic acid]: the pIC50 was below 4.00. In the case of `C=Cc1cc(OC(F)(F)F)cc2c1OC(C(F)(F)F)C(C(=O)O)=C2` (stereo not drawn) [Example 21n, 6-(trifluoromethoxy)-2-(trifluoromethyl)-8-vinyl-2H-chromene-3-carboxylic acid] it was above 6.86; in that of `O=C(O)C1=Cc2ccc(-c3ccco3)cc2OC1C(F)(F)F` (stereo not drawn) [Example 12, 7-(2-furyl)-2-(trifluoromethyl)-2H-chromene-3-carboxylic acid], below 4.00.

Turning to `N#Cc1cc(OC(F)(F)F)cc2c1OC(C(F)(F)F)C(C(=O)O)=C2` (stereo not drawn) [Example 21p, 8-cyano-6-(trifluoromethoxy)-2-(trifluoromethyl)-2H-chromene-3-carboxylic acid], the pIC50 is 4.41. In the case of `O=C(O)C1=Cc2cc(OC(F)(F)F)cc(C#Cc3ccccc3)c2OC1C(F)(F)F` (stereo not drawn) [Example 21c, 8-(phenylethynyl)-6-(trifluoromethoxy)-2-(trifluoromethyl)-2H-chromene-3-carboxylic acid] it was 4.72 and 5.01; in that of `COc1c(Cl)cc2c(c1OC)OC(C(F)(F)F)C(C(=O)O)=C2` (stereo not drawn) [Example 4b, 6-chloro-7,8-dimethoxy-2-(trifluoromethyl)-2H-chromene-3-carboxylic acid], below 3.30.

Turning to `CCN(CC)c1cc2c(cc1Cl)C=C(C(=O)O)C(C(F)(F)F)O2` (stereo not drawn) [Example 8l, 6-chloro-7-(diethylamino)-2-(trifluoromethyl)-2H-chromene-3-carboxylic acid], the negative-log IC50 (pIC50) was < 4.48 and < 4.95 and 3.74 and < 4.00. In turn, `COc1ccc2c(c1OC)OC(C(F)(F)F)C(C(=O)O)=C2` (stereo not drawn) [Example 4a, 7,8-dimethoxy-2-(trifluoromethyl)-2H-chromene-3-carboxylic acid] had a negative-log IC50 (pIC50) below 3.30. The same measure for `Cc1cc(C)c2c(c1)C=C(C(=O)O)[C@@H](C(F)(F)F)O2` (single isomer, unassigned) [Example 32b]: below 4.00; for `CC(C)(C#N)c1cc2c(cc1Cl)C=C(C(=O)O)C(C(F)(F)F)O2` (stereo not drawn) [Example 118, 6-chloro-7-(1-cyano-1-methylethyl)-2-(trifluoromethyl)-2H-chromene-3-carboxylic acid]: below 4.00; for `CCCCC(C)(C)c1ccc2c(c1)OC(C(F)(F)F)C(C(=O)O)=C2` (stereo not drawn) [Example 109, 7-(1,1-dimethylpentyl)-2-(trifluoromethyl)-2H-chromene-3-carboxylic acid]: 6.38 and > 6.86. With `COc1c(Cl)cc2c(c1C)OC(C(F)(F)F)C(C(=O)O)=C2` (stereo not drawn) [Example 3a, 6-chloro-7-methoxy-8-methyl-2-(trifluoromethyl)-2H-chromene-3-carboxylic acid], the pIC50 was below 4.00. The compound `Cc1ccc(Cc2cc3c(cc2Cl)C=C(C(=O)O)C(C(F)(F)F)O3)cc1Cl` (stereo not drawn) [Example 9y, 6-chloro-7-(3-chloro-4-methylbenzyl)-2-(trifluoromethyl)-2H-chromene-3-carboxylic acid] gave a pIC50 of 5.33.

`CCCCOc1c(Cl)c(Cl)c(Cl)c2c1OC(C(F)(F)F)C(C(=O)O)=C2` (stereo not drawn) [Example 28b, 8-butoxy-5,6,7-trichloro-2-(trifluoromethyl)-2H-chromene-3-carboxylic acid] had a pIC50 of 4.38.

Turning to `COc1ccc2c(c1C)OC(C(F)(F)F)C(C(=O)O)=C2` (stereo not drawn) [Example 5c, 7-methoxy-8-methyl-2-(trifluoromethyl)-2H-chromene-3-carboxylic acid], the pIC50 was < 4.00 and 3.32. In the case of `Cc1c(Cl)cc(C(C)C)c2c1C=C(C(=O)O)C(C(F)(F)F)O2` (stereo not drawn) [Example 6, 6-chloro-8-isopropyl-5-methyl-2-(trifluoromethyl)-2H-chromene-3-carboxylic acid] it was < 4.00 and 3.73 and 3.71. For the compound `Cc1c(C)c2c(c(C)c1Cl)C=C(C(=O)O)C(C(F)(F)F)O2` (stereo not drawn) [Example 104], the pIC50 was 5.17 and 4.92. In the case of `C=C(C)c1cc2c(cc1Cl)C=C(C(=O)O)C(C(F)(F)F)O2` (stereo not drawn) [Example 113, 6-chloro-7-isopropenyl-2-(trifluoromethyl)-2H-chromene-3-carboxylic acid] it was below 4.00. In the case of `CN(Cc1ccccc1)c1cc2c(cc1Cl)C=C(C(=O)O)C(C(F)(F)F)O2` (stereo not drawn) [Example 8i, 7-[benzyl(methyl)amino]-6-chloro-2-(trifluoromethyl)-2H-chromene-3-carboxylic acid] it was 4.85; in that of `Nc1ccc(Oc2cc3c(cc2Cl)C=C(C(=O)O)C(C(F)(F)F)O3)c(F)c1` (stereo not drawn) [Example 2a, 7-(4-amino-2-fluorophenoxy)-6-chloro-2-(trifluoromethyl)-2H-chromene-3-carboxylic acid], > 6.86 and 6.46 and 6.95; in that of `COc1ccc(Cl)c2c1OC(C(F)(F)F)C(C(=O)O)=C2` (stereo not drawn) [Example 23d, 5-chloro-8-methoxy-2-(trifluoromethyl)-2H-chromene-3-carboxylic acid], below 3.30. The same measure for `CCC(C)(C)c1ccc2c(c1)OC(C(F)(F)F)C(C(=O)O)=C2` (stereo not drawn) [Example 106, 7-tert-pentyl-2-(trifluoromethyl)-2H-chromene-3-carboxylic acid]: < 4.00 and 4.03; for `COc1ccc(Cc2cc3c(cc2Cl)C=C(C(=O)O)C(C(F)(F)F)O3)cc1` (stereo not drawn) [Example 9q, 6-chloro-7-(4-methoxybenzyl)-2-(trifluoromethyl)-2H-chromene-3-carboxylic acid]: 4.00; for `Cc1c(OCCC(C)C)c(Cl)cc2c1OC(C(F)(F)F)C(C(=O)O)=C2` (stereo not drawn) [Example 3h, 6-chloro-7-(isopentyloxy)-8-methyl-2-(trifluoromethyl)-2H-chromene-3-carboxylic acid]: 4.77 and 4.73 and 4.74. Regarding `O=C(O)C1=Cc2cc(Cl)c(OCC3CCCC3)c(Cl)c2OC1C(F)(F)F` (stereo not drawn) [Example 1c, 6,8-dichloro-7-(cyclopentylmethoxy)-2-(trifluoromethyl)-2H-chromene-3-carboxylic acid], the pIC50 is 6.27 and 6.84. In the case of `CC(C)(C)CCc1cc2c(cc1Cl)C=C(C(=O)O)C(C(F)(F)F)O2` (stereo not drawn) [Example 9b, 6-chloro-7-(3,3-dimethylbutyl)-2-(trifluoromethyl)-2H-chromene-3-carboxylic acid] it was 4.72 and 4.75; in that of `CCCC(C)(C)c1cc2c(cc1Cl)C=C(C(=O)O)C(C(F)(F)F)O2` (stereo not drawn) [Example 111, 6-chloro-7-(1,1-dimethylbutyl)-2-(trifluoromethyl)-2H-chromene-3-carboxylic acid], 5.04. In the case of `CCCOc1c(Cl)cc2c(c1C)OC(C(F)(F)F)C(C(=O)O)=C2` (stereo not drawn) [Example 3c, 6-chloro-8-methyl-7-propoxy-2-(trifluoromethyl)-2H-chromene-3-carboxylic acid], the pIC50 is 5.64. In the case of `O=C(O)C1=Cc2cc(Cl)c(C(=O)c3ccccc3)cc2OC1C(F)(F)F` (stereo not drawn) [Example 10, 7-benzoyl-6-chloro-2-(trifluoromethyl)-2H-chromene-3-carboxylic acid] it was above 6.86; in that of `CC(C)(C)Oc1c(Cl)cc2c(c1Cl)OC(C(F)(F)F)C(C(=O)O)=C2` (stereo not drawn) [Example 1h, 7-tert-butoxy-6,8-dichloro-2-(trifluoromethyl)-2H-chromene-3-carboxylic acid], above 6.86; in that of `CC1CCN(c2cc3c(cc2Cl)C=C(C(=O)O)C(C(F)(F)F)O3)CC1` (stereo not drawn) [Example 8d, 6-chloro-7-(4-methylpiperidin-1-yl)-2-(trifluoromethyl)-2H-chromene-3-carboxylic acid], below 4.00. In the case of `CC(C)(C)c1cc(Cl)c2c(c1)C=C(C(=O)O)C(C(F)(F)F)O2` (stereo not drawn) [Example 35, 6-tert-butyl-8-chloro-2-(trifluoromethyl)-2H-chromene-3-carboxylic acid] it was 5.54. In the case of `COc1ccc(Br)c2c1OC(C(F)(F)F)C(C(=O)O)=C2` (stereo not drawn) [Example 24a, 5-bromo-8-methoxy-2-(trifluoromethyl)-2H-chromene-3-carboxylic acid] it was below 3.30; in that of `COc1c(Cl)c(Cl)c(C)c2c1OC(C(F)(F)F)C(C(=O)O)=C2` (stereo not drawn) [Example 29, 6,7-dichloro-8-methoxy-5-methyl-2-(trifluoromethyl)-2H-chromene-3-carboxylic acid], < 4.00 and 3.66. `Cc1c(Cc2ccccc2)c(Cl)cc2c1OC(C(F)(F)F)C(C(=O)O)=C2` (stereo not drawn) [Example 14a, 7-benzyl-6-chloro-8-methyl-2-(trifluoromethyl)-2H-chromene-3-carboxylic acid] showed a pIC50 above 6.86. The same measure for `O=C(O)C1=Cc2ccc(OCc3ccco3)cc2OC1C(F)(F)F` (stereo not drawn) [Example 5f, 7-(2-furylmethoxy)-2-(trifluoromethyl)-2H-chromene-3-carboxylic acid]: below 4.00. The same measure for `C#Cc1cc(OC(F)(F)F)cc2c1OC(C(F)(F)F)C(C(=O)O)=C2` (stereo not drawn) [Example 21f, 8-ethynyl-6-(trifluoromethoxy)-2-(trifluoromethyl)-2H-chromene-3-carboxylic acid]: > 6.86 and 7.51; for `CCCCCc1cc(OC(F)(F)F)cc2c1OC(C(F)(F)F)C(C(=O)O)=C2` (stereo not drawn) [Example 21j, 8-pentyl-6-(trifluoromethoxy)-2-(trifluoromethyl)-2H-chromene-3-carboxylic acid]: 4.39; for `O=C(O)C1=Cc2cc(Cl)c(N3CCC3)cc2OC1C(F)(F)F` (stereo not drawn) [Example 8j, 7-azetidin-1-yl-6-chloro-2-(trifluoromethyl)-2H-chromene-3-carboxylic acid]: below 4.00. The same measure for `CCOc1c(Cl)c(Br)c(Cl)c2c1OC(C(F)(F)F)C(C(=O)O)=C2` (stereo not drawn) [Example 27, 6-bromo-5,7-dichloro-8-ethoxy-2-(trifluoromethyl)-2H-chromene-3-carboxylic acid]: < 4.00 and 3.70.
